From PubChem BioAssay (NCI)
Several values for one entry are separate records, joined by “and”; a condition that tells them apart may be missing. Equal entries are not always repeated.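 Where inhibition never reached the appropriate level, the endpoint shown equals the highest concentration tested. Otherwise, values were interpolated linearly from a five-concentration, 48-hour dose response in 96-well plates. At the GI50, growth is halved. TGI: total growth inhibition.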

Tests used:
Assay in all cases: inhibition of tumour cell growth, NCI panel, 48 h
[1] = system: SK-MEL-2 melanoma
[2] = system: MDA-MB-231 breast
[3] = system: ACHN renal
[4] = system: SF-539 CNS
[5] = system: MALME-3M melanoma
[6] = system: SF-268 CNS
[7] = system: SNB-19 CNS
[8] = system: UO-31 renal
[9] = system: OVCAR-5 ovarian
[10] = system: CAKI-1 renal
[11] = system: COLO 205 colon
[12] = system: HCC-2998 colon
[13] = system: HCT-15 colon
[14] = system: HL-60(TB) leukemia
[15] = system: HT29 colon
[16] = system: SR leukemia
[17] = system: OVCAR-4 ovarian
[18] = system: MOLT-4 leukemia
[19] = system: NCI-H460 lung
[20] = system: HCT-116 colon
[21] = system: SNB-75 CNS
[22] = system: UACC-62 melanoma
[23] = system: A498 renal
[24] = system: OVCAR-8 ovarian
[25] = system: RPMI-8226 leukemia
[26] = system: NCI-H23 lung
[27] = system: NCI/ADR-RES ovarian
[28] = system: NCI-H522 lung
[29] = system: M14 melanoma
[30] = system: IGROV1 ovarian
[31] = system: A549 NSCLC
[32] = system: K-562 leukemia
[33] = system: 786-0 renal
[34] = system: CCRF-CEM leukemia
[35] = system: HS 578T breast
[36] = system: EKVX NSCLC
[37] = system: SK-MEL-28 melanoma
[38] = system: UACC-257 melanoma
[39] = system: SW-620 colon
[40] = system: NCI-H226 lung
[41] = system: SK-MEL-5 melanoma
[42] = system: KM12 colon
[43] = system: SF-295 CNS
[44] = system: HOP-62 NSCLC
[45] = system: OVCAR-3 ovarian
[46] = system: MDA-N
[47] = system: SN12C renal
[48] = system: MDA-MB-435
[49] = system: DU-145 prostate
[50] = system: T-47D breast
[51] = system: RXF 393 renal
[52] = system: PC-3 prostate
[53] = system: HOP-92 NSCLC
[54] = system: U251 CNS
[55] = system: TK-10 renal
[56] = system: MCF7 breast
[57] = system: LOX IMVI melanoma
[58] = system: SK-OV-3 ovarian
[59] = system: BT-549 breast

## O=C1c2c(O)cccc2C(C2OC(CO)C(O)C(O)C2O)c2cc(CO)cc(O)c21 (centres undefined)
[1]
  TGI: > 100 µM
[2]
  TGI: > 100 µM
[3]
  TGI: > 100 µM
[4]
  TGI: > 100 µM
[5]
  TGI: > 100 µM
[6]
  TGI: > 100 µM
[7]
  TGI: > 100 µM
[8]
  TGI: > 100 µM
[9]
  TGI: > 100 µM
[10]
  TGI: > 100 µM
[11]
  TGI: > 100 µM
[12]
  TGI: > 100 µM
[13]
  TGI: > 100 µM
[14]
  TGI: > 100 µM
[15]
  TGI: > 100 µM
[16]
  GI50: > 100 µM
  TGI: > 100 µM
[17]
  TGI: > 100 µM
[18]
  TGI: > 100 µM
[19]
  TGI: > 100 µM
[20]
  TGI: > 100 µM
[21]
  TGI: > 100 µM
[22]
  TGI: > 100 µM
[23]
  TGI: > 100 µM
[24]
  TGI: > 100 µM
[25]
  TGI: > 100 µM
[26]
  TGI: > 100 µM
[27]
  TGI: > 100 µM
[28]
  TGI: > 100 µM
[29]
  TGI: > 100 µM
[30]
  TGI: > 100 µM
[31]
  TGI: > 100 µM
[32]
  TGI: > 100 µM
[33]
  TGI: > 100 µM
[34]
  TGI: > 100 µM
[35]
  TGI: > 100 µM
[36]
  TGI: > 100 µM
[37]
  TGI: > 100 µM
[38]
  TGI: > 100 µM
[39]
  TGI: > 100 µM
[40]
  TGI: > 100 µM
[41]
  TGI: > 100 µM
[42]
  TGI: > 100 µM
[43]
  TGI: > 100 µM
[44]
  TGI: > 100 µM
[45]
  GI50: 43.9 µM and > 100 µM
  TGI: > 100 µM
[46]
  TGI: > 100 µM
[47]
  TGI: > 100 µM
[48]
  TGI: > 100 µM
[49]
  TGI: > 100 µM
[50]
  TGI: > 100 µM
[51]
  TGI: > 100 µM
[52]
  TGI: > 100 µM
[53]
  TGI: > 100 µM
[54]
  TGI: > 100 µM
[55]
  TGI: > 100 µM
[56]
  TGI: > 100 µM
[57]
  TGI: > 100 µM
[58]
  TGI: > 100 µM
[59]
  TGI: > 100 µM

## C[CH2][Sn]([CH2]C)([O]C(=O)C(OC(C)=O)c1ccccc1)[O]C(=O)C(OC(C)=O)c1ccccc1 (centres undefined)
[1]
  GI50: 54.6 µM
  TGI: > 100 µM
[2]
  GI50: 26.6 µM
  TGI: 77.8 µM
[3]
  GI50: 17.3 µM
  TGI: 31.1 µM
[4]
  GI50: 17.5 µM
  TGI: 33 µM
[5]
  GI50: 18.4 µM
  TGI: 33.5 µM
[6]
  GI50: 16.6 µM
  TGI: 31.8 µM
[7]
  GI50: 52 µM
  TGI: > 100 µM
[8]
  GI50: 19.5 µM
  TGI: 43.4 µM
[9]
  GI50: 41.2 µM
  TGI: > 100 µM
[10]
  GI50: 72 µM
  TGI: > 100 µM
[11]
  GI50: 23.3 µM
  TGI: 72.9 µM
[13]
  GI50: 25.7 µM
  TGI: 82.3 µM
[14]
  GI50: 10 µM
  TGI: 29.8 µM
[15]
  GI50: 46.7 µM
  TGI: > 100 µM
[16]
  GI50: 24.3 µM
  TGI: > 100 µM
[17]
  GI50: 50 µM
  TGI: > 100 µM
[18]
  GI50: 17.2 µM
  TGI: 60.9 µM
[19]
  GI50: > 100 µM
  TGI: > 100 µM
[20]
  GI50: 92.6 µM
  TGI: > 100 µM
[21]
  GI50: 31.9 µM
  TGI: 99.5 µM
[23]
  GI50: 19.8 µM
  TGI: 35.6 µM
[24]
  GI50: > 100 µM
  TGI: > 100 µM
[25]
  GI50: 11.2 µM
  TGI: 36.9 µM
[26]
  GI50: 15.5 µM
  TGI: 29.8 µM
[27]
  GI50: > 100 µM
  TGI: > 100 µM
[28]
  GI50: 1.58 µM
  TGI: 4.35 µM
[29]
  GI50: 44.5 µM
  TGI: > 100 µM
[30]
  GI50: > 100 µM
  TGI: > 100 µM
[31]
  GI50: > 100 µM
  TGI: > 100 µM
[32]
  GI50: 14.6 µM
  TGI: 45.9 µM
[33]
  GI50: 19.9 µM
  TGI: 34.8 µM
[34]
  GI50: 1.93 µM
  TGI: 6.15 µM
[35]
  GI50: 40 µM
  TGI: > 100 µM
[36]
  GI50: > 100 µM
  TGI: > 100 µM
[37]
  GI50: 18.3 µM
  TGI: 40.9 µM
[38]
  GI50: 16.7 µM
  TGI: 33.4 µM
[39]
  GI50: 16.3 µM
  TGI: 36.8 µM
[40]
  GI50: 29 µM
  TGI: 92.7 µM
[41]
  GI50: 68.1 µM
  TGI: > 100 µM
[42]
  GI50: > 100 µM
  TGI: > 100 µM
[43]
  GI50: > 100 µM
  TGI: > 100 µM
[44]
  GI50: > 100 µM
  TGI: > 100 µM
[45]
  GI50: > 100 µM
  TGI: > 100 µM
[46]
  GI50: 50 µM
  TGI: > 100 µM
[47]
  GI50: > 100 µM
  TGI: > 100 µM
[48]
  GI50: > 100 µM
  TGI: > 100 µM
[49]
  GI50: 94.7 µM
  TGI: > 100 µM
[50]
  GI50: 12.9 µM
  TGI: 28 µM
[51]
  GI50: 18.6 µM
  TGI: 33.1 µM
[52]
  GI50: > 100 µM
  TGI: > 100 µM
[53]
  GI50: 18.6 µM
  TGI: 34.9 µM
[54]
  GI50: 37.6 µM
  TGI: > 100 µM
[55]
  GI50: 18.8 µM
  TGI: 33 µM
[56]
  GI50: 14.6 µM
  TGI: 27.8 µM
[57]
  GI50: 18.2 µM
  TGI: 35.4 µM
[58]
  GI50: > 100 µM
  TGI: > 100 µM
[59]
  GI50: 16.1 µM
  TGI: 29.7 µM

## C/C=C(/COC(C)=O)C(=O)OC1C=C(C=O)C(C)(C)C=C1C (centres undefined)
[1]
  TGI: > 100 µM
[2]
  TGI: > 100 µM
[3]
  TGI: > 100 µM
[4]
  TGI: > 100 µM
[5]
  TGI: > 100 µM
[6]
  TGI: > 100 µM
[7]
  TGI: > 100 µM
[8]
  TGI: > 100 µM
[9]
  TGI: > 100 µM
[10]
  TGI: > 100 µM
[11]
  TGI: > 100 µM
[12]
  TGI: > 100 µM
[13]
  TGI: > 100 µM
[14]
  TGI: > 100 µM
[15]
  TGI: > 100 µM
[16]
  TGI: > 100 µM
[17]
  TGI: > 100 µM
[19]
  TGI: > 100 µM
[20]
  TGI: > 100 µM
[21]
  TGI: > 100 µM
[22]
  TGI: > 100 µM
[23]
  TGI: > 100 µM
[24]
  TGI: > 100 µM
[26]
  TGI: > 100 µM
[27]
  TGI: > 100 µM
[28]
  TGI: > 100 µM
[29]
  TGI: > 100 µM
[30]
  TGI: > 100 µM
[31]
  TGI: > 100 µM
[32]
  TGI: > 100 µM
[33]
  TGI: > 100 µM
[34]
  TGI: > 100 µM
[35]
  TGI: > 100 µM
[36]
  TGI: > 100 µM
[37]
  TGI: > 100 µM
[38]
  TGI: > 100 µM
[39]
  TGI: > 100 µM
[40]
  TGI: > 100 µM
[41]
  TGI: > 100 µM
[42]
  TGI: > 100 µM
[43]
  TGI: > 100 µM
[46]
  TGI: > 100 µM
[47]
  TGI: > 100 µM
[48]
  TGI: > 100 µM
[49]
  TGI: > 100 µM
[50]
  TGI: > 100 µM
[52]
  TGI: > 100 µM
[53]
  TGI: > 100 µM
[54]
  TGI: > 100 µM
[55]
  TGI: > 100 µM
[56]
  TGI: > 100 µM
[57]
  TGI: > 100 µM
[58]
  TGI: > 100 µM
[59]
  TGI: > 100 µM
